From patent US8399480B2, “Hydroxymethyl pyrrolidines as beta 3 adrenergic receptor agonists” (Merck Sharp & Dohme Corp., priority 2008, dated 2013)

target: T1, human β3 adrenergic receptor (Homo sapiens, UniProt P13945); test: Functional assay: cAMP production (LANCE TR-FRET) in CHO cells stably transfected with cloned β3 adrenergic receptor; assay type: cell-based; conditions: Table 4; human β3 functional activity; read-out: Human β Binding
T1 construct: expressed in transfected cells; host or cells: Chinese hamster ovary (CHO) cells, stably transfected
T1 sequence (P13945 whole entry): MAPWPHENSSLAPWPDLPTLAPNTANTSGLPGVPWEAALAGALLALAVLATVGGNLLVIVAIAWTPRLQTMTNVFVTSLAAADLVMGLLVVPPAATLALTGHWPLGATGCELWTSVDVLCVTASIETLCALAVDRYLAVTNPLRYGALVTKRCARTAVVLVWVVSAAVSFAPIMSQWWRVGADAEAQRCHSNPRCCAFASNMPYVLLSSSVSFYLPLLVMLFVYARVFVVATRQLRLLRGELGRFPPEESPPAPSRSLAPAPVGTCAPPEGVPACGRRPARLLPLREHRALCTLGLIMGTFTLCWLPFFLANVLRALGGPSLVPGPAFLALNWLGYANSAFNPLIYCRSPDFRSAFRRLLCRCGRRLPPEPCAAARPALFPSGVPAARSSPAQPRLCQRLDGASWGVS
Method: Chinese hamster ovary (CHO) cells, stably transfected with the cloned β-adrenergic receptor (β1, β2 or β3) are harvested after 3 days of subculturing. Harvesting of cells is done with Enzyme-free Dissociation Media (Specialty Media). Cells are then counted and resuspended in assay buffer (Hank's Balanced salt solution supplemented with 5 mM HEPES, 0.1% BSA) containing a phosphodiesterase inhibitor (IBMX, 0.6 mM). The reaction is initiated by mixing 6,000 cells in 6 μL with 6 μL Alexa Fluor labeled cAMP antibody (LANCE™ kit) which is then added to an assay well containing 12 μL of compound (diluted in assay buffer to 2× final concentration). The reaction proceeds for 30 min at room temperature and is terminated by the addition of 24 μL detection buffer (LANCE™ kit). The assay plate is then incubated for 1 h at room temperature and time-resolved fluorescence measured on a Perkin Elmer Envision reader or equivalent. The unknown cAMP level is determined by comparing fluorescence levels to a cAMP standard curve.
The non-selective, full agonist β-adrenergic ligand isoproterenol is used at all three receptors to determine maximal stimulation. […] Data are analyzed using Microsoft Excel and Graphpad Prism or an internally developed data analysis software package.

EC50 | SMILES
1 to 10 nM | O=C(Cn1ncc2ccccc21)Nc1ccc(C[C@@H]2CC[C@H]([C@H](O)c3ccccc3)N2)cc1 [Example 6]
1 to 10 nM | Cc1nc(CC(=O)Nc2ccc(C[C@@H]3CC[C@H]([C@H](O)c4ccccc4)N3)cc2)no1 [Example 74]
101 to 1000 nM | O=C(Nc1ccc(C[C@@H]2CC[C@H]([C@H](O)c3ccccc3)N2)cc1)c1ccccc1CCc1ccccc1 [Example 30]
1000 to 3000 nM | Cc1nc2c(CC(=O)Nc3ccc(C[C@@H]4CC[C@H]([C@H](O)c5ccccc5)N4)cc3)cccn2n1 [Example 97]
101 to 1000 nM | O=C(Nc1ccc(C[C@@H]2CC[C@H]([C@H](O)c3ccccc3)N2)cc1)c1ccccc1N1CCCC1 [Example 7]
11 to 100 nM | CN1CCCN(CC(=O)Nc2ccc(C[C@@H]3CC[C@H]([C@H](O)c4ccccc4)N3)cc2)C1=O [Example 99]
11 to 100 nM | O=C(Cn1nnnc1-c1ccc(F)cc1)Nc1ccc(C[C@@H]2CC[C@H]([C@H](O)c3ccccc3)N2)cc1 [Example 29]
101 to 1000 nM | O=C(CC1CCCNC1=O)Nc1ccc(C[C@@H]2CC[C@H]([C@H](O)c3ccccc3)N2)cc1 (some centres unmarked) [Example 85]
101 to 1000 nM | O=C(Nc1ccc(C[C@@H]2CC[C@H]([C@H](O)c3ccccc3)N2)cc1)c1ccccc1COc1ccccc1 [Example 31]
11 to 100 nM | O=C(Nc1ccc(C[C@@H]2CC[C@H]([C@H](O)c3ccccc3)N2)cc1)c1ccccc1-n1nccn1 [Example 11]
11 to 100 nM | O=C(Cn1ccncc1=O)Nc1ccc(C[C@@H]2CC[C@H]([C@H](O)c3ccccc3)N2)cc1 [Example 67]
1 to 10 nM | Cc1cccc2c(=O)n(CC(=O)Nc3ccc(C[C@@H]4CC[C@H]([C@H](O)c5ccccc5)N4)cc3)cnc12 [Example 58]
11 to 100 nM | O=C(Cn1nccn1)Nc1ccc(C[C@@H]2CC[C@H]([C@H](O)c3ccccc3)N2)cc1 [Example 81]

same assay, conditions: Table 5; read-out: Human β3 Functional

EC50 | SMILES
1 to 10 nM | CCC(C(=O)Nc1ccc(C[C@@H]2CC[C@H]([C@H](O)c3ccccc3)N2)cc1)n1nccn1 (single isomer, unassigned) [Example 217]
11 to 100 nM | Cc1nnc2n1C(C(=O)Nc1ccc(C[C@@H]3CC[C@H]([C@H](O)c4ccccc4)N3)cc1)CC2 (single isomer, unassigned) [Example 126]
101 to 1000 nM | O=C(Nc1ccc(C[C@@H]2CC[C@H]([C@H](O)c3ccccc3)N2)cc1)C1CCc2ccc(=O)[nH]c21 (single isomer, unassigned) [Example 135]
1 to 10 nM | O=C(Nc1ccc(C[C@@H]2CC[C@H]([C@H](O)c3ccccc3)N2)cc1)C1CCn2nnnc21 (single isomer, unassigned) [Example 131]
1 to 10 nM | CC(C(=O)Nc1ccc(C[C@@H]2CC[C@H]([C@H](O)c3ccccc3)N2)cc1)n1ccccc1=O (single isomer, unassigned) [Example 202]
1 to 10 nM | CC(C(=O)Nc1ccc(C[C@@H]2CC[C@H]([C@H](O)c3ccccc3)N2)cc1)n1cnnn1 (single isomer, unassigned) [Example 172]
1 to 10 nM | CC(C(=O)Nc1ccc(C[C@@H]2CC[C@H]([C@H](O)c3ccccc3)N2)cc1)n1nncc1C(=O)O (single isomer, unassigned) [Example 196]
1 to 10 nM | CC(C(=O)Nc1ccc(C[C@@H]2CC[C@H]([C@H](O)c3ccccc3)N2)cc1)n1nncc1C(N)=O (single isomer, unassigned) [Example 199]
1 to 10 nM | CC(C(=O)Nc1ccc(C[C@@H]2CC[C@H]([C@H](O)c3ccccc3)N2)cc1)c1ccccn1 (single isomer, unassigned) [Example 205]
11 to 100 nM | O=C(Nc1ccc(CC2CCC(C(O)c3ccccc3)N2)cc1)C1Cc2ccccc2C1 (centres unmarked) [Example 106]
1 to 10 nM | CC(C(=O)Nc1ccc(C[C@@H]2CC[C@H]([C@H](O)c3ccccc3)N2)cc1)n1cc(C(N)=O)nn1 (single isomer, unassigned) [Example 192]
< 1 nM | O=C(Nc1ccc(C[C@@H]2CC[C@H]([C@H](O)c3ccccc3)N2)cc1)C1CCc2sc(Br)nc21 (single isomer, unassigned) [Example 145]
101 to 1000 nM | O=C(Nc1ccc(C[C@@H]2CC[C@H]([C@H](O)c3ccccc3)N2)cc1)C1CCCc2ccccc21 (single isomer, unassigned) [Example 113]
1 to 10 nM | COCCC(C(=O)Nc1ccc(C[C@@H]2CC[C@H]([C@H](O)c3ccccc3)N2)cc1)n1cccn1 (single isomer, unassigned) [Example 223]
1 to 10 nM | CCC(C(=O)Nc1ccc(C[C@@H]2CC[C@H]([C@H](O)c3ccccc3)N2)cc1)n1nccn1 (single isomer, unassigned) [Example 216]
1 to 10 nM | Cc1nc2c(s1)CCC2C(=O)Nc1ccc(C[C@@H]2CC[C@H]([C@H](O)c3ccccc3)N2)cc1 (single isomer, unassigned) [Example 118]
101 to 1000 nM | CC(Oc1cccnn1)C(=O)Nc1ccc(C[C@@H]2CC[C@H]([C@H](O)c3ccccc3)N2)cc1 (single isomer, unassigned) [Example 214]

same assay, conditions: Table 6; read-out: Human β3 Functional

EC50 | SMILES
1000 to 3000 nM | Cc1nc2c(s1)CCCC2C(=O)Nc1ccc(CC2CCC(C(O)c3ccccc3)N2)cc1 (single isomer, unassigned) [Example 232]

same assay, conditions: Table 7; β3AR-cAMP; read-out: Human β3 Functional

EC50 | SMILES
101 to 1000 nM | Cc1nnc(-c2cccc(S(=O)(=O)Nc3ccc(C[C@@H]4CC[C@H]([C@H](O)c5ccccc5)N4)cc3)c2)o1 [Example 242]
101 to 1000 nM | O=S(=O)(Nc1ccc(C[C@@H]2CC[C@H]([C@H](O)c3ccccc3)N2)cc1)c1cccc2ncccc12 [Example 238]

same assay, conditions: Table 8; read-out: Human β3 Functional

EC50 | SMILES
101 to 1000 nM | O=C1OC2(CCN(C(=O)Nc3ccc(C[C@@H]4CC[C@H]([C@H](O)c5ccccc5)N4)cc3)CC2)c2cnccc21 [Example 259]
101 to 1000 nM | O=C(Nc1ccc(C[C@@H]2CC[C@H]([C@H](O)c3ccccc3)N2)cc1)N1CCC2(CCOC2=O)CC1 [Example 258]
1 to 10 nM | O=C(NCc1nnc(-c2ccccc2)[nH]1)Nc1ccc(C[C@@H]2CC[C@H]([C@H](O)c3ccccc3)N2)cc1 [Example 255]
101 to 1000 nM | CC(NC(=O)Nc1ccc(C[C@@H]2CC[C@H]([C@H](O)c3ccccc3)N2)cc1)c1cscn1 (some centres unmarked) [Example 252]
11 to 100 nM | Cc1cc(C)nc(CNC(=O)Nc2ccc(C[C@@H]3CC[C@H]([C@H](O)c4ccccc4)N3)cc2)n1 [Example 256]
101 to 1000 nM | O=C(NCc1ccccc1F)Nc1ccc(C[C@@H]2CC[C@H]([C@H](O)c3ccccc3)N2)cc1 [Example 254]

same assay, conditions: Table 10; β3AR-cAMP; read-out: Human β3 Functional

EC50 | SMILES
1 to 10 nM | Cc1nnc(CC(=O)Nc2ccc(C[C@@H]3CC[C@H]([C@H](O)c4cccc(F)c4)N3)cc2)[nH]1 [Example 280]

same assay, conditions: Table 11; read-out: Human β3 Functional

EC50 | SMILES
11 to 100 nM | CC(C(=O)Nc1ccc(CC2CCC(C(O)c3ccc(F)cc3)N2)cc1)c1cscn1 (single isomer, unassigned) [Example 285]

same assay, conditions: given as a range; cAMP, CHO cells; read-out: human β3 functional activity

EC50 | SMILES
< 1 nM | C[C@H](NC(=O)c1ccccc1F)C(=O)Nc1ccc(C[C@@H]2CC[C@H]([C@H](O)c3ccccc3)N2)cc1 [Example 263, 2-Fluoro-N-((1S)-2-{[4-({(2S,5R)-5-[(R)-hydroxy(phenyl)methyl]pyrrolidin-2-yl}methyl)phenyl]amino}-1-methyl-2-oxoethyl)benzamide]
< 1 nM | Nc1nc2c(s1)CCC2C(=O)Nc1ccc(C[C@@H]2CC[C@H]([C@H](O)c3ccccc3)N2)cc1 (single isomer, unassigned) [Example 4]

same assay, conditions: human β3 functional activity, shown as ranges; Table 13; read-out: Human β3 Functional

EC50 | SMILES
11 to 100 nM | O=C(Nc1ccc(C[C@@H]2CC[C@H]([C@H](O)c3cccc(Cl)c3)N2)cc1)[C@H]1CCc2scnc21 [Example 296]
